“And” between values parts separate entries of the source, which are not always exact repeats. Equal values may be shown once.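 How tested: cells in 96-well plates exposed to compound for 48 hours at five concentrations. GI50 = concentration required for 50% inhibition of growth. TGI denotes the concentration required for complete inhibition of growth.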
What follows are compounds tested on MDA-MB-468 breast (assay: growth of human tumour cells (NCI), 48 h).

Structure (SMILES) | GI50 | TGI
CC[C@H](Nc1nc(N)nc(C2CC2)c1C#N)c1nc2cccc(NCc3ccc(C(=O)NO)cc3)c2c(=O)n1-c1ccccc1 | 1730 nM | 4870 nM
Clc1ccc2c(c1)C(N1CCNCC1)=Nc1ccccc1O2 | 1220 nM | 2480 nM
CCCCCCNC(=O)Oc1ccc(/C(=C(/C)Cc2ccc(OC)cc2)c2ccc(OCCN(C)C)cc2)cc1 | 5400 nM | 10600 nM
CCCCCCNC(=O)n1cc(F)c(=O)[nH]c1=O | 10000 nM | 26300 nM
CCOC(=O)Nc1nc2cc(OCC)ccc2s1 | 2620 nM | > 100000 nM
COc1ccc(NC(=O)n2nc(/C=C\c3ccc(O)c(OC)c3)cc2/C=C\c2ccc(O)c(OC)c2)cc1 | 3550 nM | 21600 nM
CCCCNC(=O)Oc1ccc(/C(=C(/CC)Cc2ccccc2)c2ccc(OCCN3CCCCCC3)cc2)cc1 | 21500 nM | 46900 nM
CCN1C(=O)N(CC)C2SC(N/N=C/c3ccc(F)cc3)=NC21 (centres undefined) | 400 nM | 
Oc1c(Cl)cc(Cl)cc1Sc1cc(Cl)cc(Cl)c1O | 2810 nM and 2590 nM | 8850 nM and 7830 nM
CC(C(=O)O)c1ccc(-c2ccccc2)c(F)c1 (centres undefined) | > 100000 nM | > 100000 nM
Cc1cc2nc(-c3c(N)ncc(C#N)c3-c3ccc(Cl)cc3)[nH]c2cc1C | 12400 nM | 51500 nM
Cn1cc(C2=C(c3cn(C)c4cc(N)ccc34)C(=O)NC2=O)c2ccccc21 | 1560 nM | 7970 nM
CC1(C)[C@@H](OC(N)=O)C=C[C@]2(CO)[C@H]3CC[C@]4(C)[C@@H](c5ccc(=O)oc5)[C@@H](Cl)C[C@]4(O)C3=CC[C@@H]12 | 14.9 nM | 67.4 nM
Cc1cnc(Nc2ccc(OCCN3CCCC3)cc2)nc1Nc1cccc(S(=O)(=O)NC(C)(C)C)c1 | 74.1 nM and 483 nM | 792 nM and 3110 nM
CC[C@]1(O)C[C@@H]2CN(CCc3c([nH]c4ccccc34)[C@@](C(=O)OC)(c3cc4c(cc3OC)N(C)[C@H]3[C@@](O)(C(N)=O)[C@H](O)[C@]5(CC)[C@@H]6C[C@@H]6CN6CC[C@]43[C@@H]65)C2)C1 | < 3.33 nM | 262 nM
NC(=O)c1c(NC(=O)c2ccccc2C(F)(F)F)sc2c1CCC(=O)C2 | 2250 nM | 6090 nM
COC(=O)[C@H]1[C@H]2C[C@@H]3c4[nH]c5cc(OC)ccc5c4CCN3C[C@H]2C[C@@H](OC(=O)/C=C/c2cc(OC)c(OC)c(OC)c2)[C@@H]1OC | 3270 nM | 11600 nM
Oc1c(CN2CCCC2)cc(CSCc2ccccc2)c2cccnc12 | 1200 nM | 3240 nM

Structure (SMILES) | GI50 | TGI
C[PH+](c1nc2ccccc2nc1[PH+](C)C(C)(C)C)C(C)(C)C.C[PH+](c1nc2ccccc2nc1[PH+](C)C(C)(C)C)C(C)(C)C.[Au+].[Cl-] (centres undefined) | 24.8 nM | 90.4 nM
CC(=O)c1cc(-c2ccccc2N)n(-c2ccc3c(c2)OCO3)c1C | 50.7 nM | > 72100 nM
C/C(=C(/c1ccc(O)cc1)c1ccc(Cl)cc1)c1ccccc1 | 601 nM | 2020 nM
CC[C@@]12C=CCN3CC[C@]4(c5cc(NC(=O)COc6cc(OCC(=O)Nc7cc8c(cc7OC)N(C)[C@H]7[C@@](O)(C(=O)OC)[C@H](OC(C)=O)[C@]9(CC)C=CCN%10CC[C@]87[C@@H]%109)cc7oc(-c8ccccc8)cc(=O)c67)c(OC)cc5N(C)[C@@H]4[C@](O)(C(=O)OC)[C@H]1OC(C)=O)[C@H]32 | 2250 nM | 8870 nM
COc1ccc([C@@H](O)c2cc(-c3ncnc4cc(N5CCOCC5)ccc34)c(F)cc2Cl)nn1 | 1690 nM | 8260 nM
CCCCN(CCCC)CCc1c(C)cc(C)c(CCN(CCCC)CCCC)c1O | 1830 nM | 5510 nM
COc1cc2ncnc3c2cc1OCCCCCN(C)Cc1ccc(Br)cc1N3 | 46.3 nM and 39.3 nM | 400 nM and 453 nM
COc1cc(/C=C2\CN(C(=O)CCN3CCC(=NO)CC3)C/C(=C\c3cc(OC)c(OC)c(OC)c3)C2=O)cc(OC)c1OC | 342 nM | 1270 nM
COc1cc2c(c(OC)c1OC)-c1ccc(O)c(=O)cc1[C@@H](NC(C)=O)CC2 | 4110 nM | 27500 nM
COc1ccc(/C=C\c2cc(OC)c(OC)c(OC)c2)c(NS(=O)(=O)c2ccc(Cl)cc2)c1O | 36.7 nM | 15000 nM
C[C@]12CC[C@@H](OC(=O)N(CCCl)N=O)C[C@@H]1CC[C@@H]1[C@@H]2CC[C@]2(C)C(=O)CC[C@@H]12 | 867 nM | 12300 nM
N=c1ccc2nc3c(cc(N)c4ccccc43)oc-2c1 | 86.5 nM | 423 nM
CNCCNc1nc2ccccc2c2c(=O)c3cc(OC)ccc3sc12 | 1490 nM | 3030 nM
CC(C)(C)n1cc(-c2ccnc(NCCCNS(=O)(=O)c3ccc(Br)cc3)c2)c(-c2cccc(O)c2)n1 | 2100 nM | 4800 nM
CC(=O)c1cccc(-c2cccc(-c3ccn(CCN4CCOCC4)n3)c2)c1 | 15200 nM | > 20000 nM
CC12CC=CCC1CCC1C2CCC2(C)C(c3ccc(=O)oc3)CCC12O (centres undefined) | 276 nM | 858 nM
CNCCNc1nc2ccccc2c2c(=O)c3cc(F)ccc3sc12 | 1700 nM | 3460 nM

From PubChem BioAssay (NCI)
